Reference: publication PMC3626250, “Effects of Borneol on Pharmacokinetics and Tissue Distribution of Notoginsenoside R1 and Ginsenosides Rg1 and Re in Panax notoginseng in Rabbits” (Journal of Analytical Methods in Chemistry, 2013)
Like-named read-outs stand apart in the source and are kept apart here. Marks after values point to notes of the source that are not given here.

Legend:
[1] = Pharmacokinetics study in rabbits after oral Panax notoginseng extract with or without Borneol (plasma, SPE-HPLC-MS); type: in vivo, New Zealand rabbits; conditions: for Cmax / Tmax / CL/F / half-life / AUC(0-inf) / AUC(0-t): New Zealand, rabbit, plasma; for CL/F: read-out: CL/F; for half-life: read-out: t 1/2β; for AUC(0-inf) / AUC(0-t): po
Procedure: Liquid chromatography was carried out on an Agilent 1100 HPLC system with an auto sampler, a quaternary pump and a vacuum degasser (Waldoboro, Frankfurt, Germany). Operations were controlled by Agilent Chemstation 4.2 software (Littleforts, Philadelphia, USA). Separations were achieved on a reversed-phase HPLC column (Zorbax SB-C18 150 × 2.1 mm, 5.0 μm particle size). A solution of acetonitrile and water (V : V, 20 : 80) with 0.1% (V : V) ammonium formate was used as the mobile phase. The flow rate was set at 0.3 mL·min^−1 and the column temperature was 25°C. Under these conditions, NGR1, GRg1, and GRe in plasma samples were separated efficiently without any interferences.
MS^n detection was performed on an Agilent SL trap MS system (Waldoboro, Frankfurt, Germany). The ion source-dependent (electrospray ionization) conditions were the same for all analyses with a spraying voltage of −4500 V in the negative ion mode. The pressure of the nebulizing gas (nitrogen) was set at 35 p.s.i. The flow rate of the drying gas (nitrogen) was set at 7.0 L·min^−1 with the temperature of 325°C. The collision gas (He) for the MS^n mode at trap was set at flow of 4 (instrument unit). The voltage of the capillary was set at 4000 V, and its end plate offset was −500 V. Scan range was from 500 to 1500 m/z.
(§1) Frozen plasma and tissue samples were thawed in a water bath at 37°C and were then vortexed followed by centrifuging at 5000 r·min^−1 for 5 min. An aliquot of 1.0 mL of the supernatant from each sample was loaded onto C18 Bond Elute Solid phase extraction (SPE) cartridges (1000 mg, 1 cc reservoir, Varian, Harbor City, CA, USA) pretreated with 2.0 mL hexane, isopropanol, methanol, and water, sequentially. The SPE cartridges were then washed with 1.0 mL water, 20% methanol/water solution, 40% methanol/water solution, and 60% methanol/water solution, sequentially. Finally, analytes were eluted twice with 1.0 mL of 70% methanol/water solution. The eluant was evaporated to dryness under nitrogen. The residues were then reconstituted in 1.0 mL mobile phase. An aliquot of 10 μL was injected into the LC-MS system.
Eighteen rabbits were randomly divided into three groups of 6 subjects and were orally given 3.0 mL·kg^−1 normal saline, 3.0 mL·kg^−1 Panax notoginseng extract, and 3.0 mL·kg^−1 Panax notoginseng extract combined with Borneol, respectively. Plasma samples were collected in heparinized tubes from the central ear artery at 0.0, 5.0, 10.0, 20.0, 30.0, 45.0, 60.0, 75.0, 90.0, 120.0, 180.0, 300.0 and 480.0 min after dose. After each sampling, the same volume of 0.9% saline solution was injected from the ear vein to compensate the loss of blood. The plasma obtained was frozen at −70°C for storage and was processed prior to analysis with the proposed method as described in Section 2.6.
Statistical analysis of the biological data was performed using the Student's t-test. The drug analysis system 2.0 (DAS 2.0, T.C.M., Shanghai, China) was used to calculate the pharmacokinetic parameters, such as the area under curve (AUC), the maximum plasma concentration (C max), the time needed to reach the maximum plasma concentration (t max) and the half-life of absorption, and distribution and elimination (t 1/2Ka, t 1/2α, t 1/2β).

[2] = Tissue distribution study in rabbits after oral Panax notoginseng extract with or without Borneol; type: in vivo, New Zealand rabbits; conditions: New Zealand, rabbit; for Kp at 1 h: oral, Borneol combined with Panax notoginseng; for concentration at 0.5 h / concentration at 1 h / concentration at 3 h: po; for concentration at 3 h: 3 mL·kg^−1, 3.0 h
Procedure: as §1
One group of rabbits (n = 18) was orally administered a dose of 3.0 mL·kg^−1 Panax notoginseng extract, while another group of rabbits (n = 18) was orally given 3.0 mL·kg^−1 Panax notoginseng extract combined with Borneol. At 0.5, 1, and 3 h after administration, blood samples were collected from the central ear artery of six rabbits from each group, and the heart, liver, lung, kidney, and brain were immediately removed after animals were sacrificed by decapitation. An accurately weighed amount of tissue (1 g) was collected to be rinsed, dried, minced, and homogenized (400 r·min^−1) in normal saline (1.5 mL). All of the samples were stored at −70°C and were processed prior to analysis with the proposed method as described in Section 2.6.

[3] = oral 3.0 mL·kg^−1 Panax notoginseng extract
[4] = oral 3.0 mL·kg^−1 Panax notoginseng extract combined with Borneol

CC(C)=CCC[C@](C)(O[C@@H]1O[C@H](CO)[C@@H](O)[C@H](O)[C@H]1O)[C@H]1CC[C@]2(C)[C@@H]1[C@H](O)C[C@@H]1[C@@]3(C)CC[C@H](O)C(C)(C)[C@@H]3[C@@H](O[C@@H]3O[C@H](CO)[C@@H](O)[C@H](O)[C@H]3O[C@@H]3O[C@@H](C)[C@H](O)[C@@H](O)[C@H]3O)C[C@]12C [GRe, ginsenoside Re]
Cmax [1, 3]: 1920 ± 220 ng/mL | Tmax [1, 3]: 45 min | Cmax [1, 4]: 3040 ± 240 ng/mL | Tmax [1, 4]: 45 min | CL/F [1, 4]: 143 ± 54 mL/min/kg | half-life [1, 4]: 69.3 ± 15.2 min | CL/F [1, 3]: 150 ± 30 mL/min/kg | half-life [1, 3]: 69.3 ± 5.8 min | AUC(0-inf) [1, 3]: 8910 ng·h/mL | AUC(0-t) [1, 3]: 7080 ng·h/mL | AUC(0-inf) [1, 4]: 23300 ng·h/mL | AUC(0-t) [1, 4]: 8750 ng·h/mL | K 10 [1, 3]: 0.007 ± 0.003 min⁻¹ | K 12 [1, 3]: 0.012 ± 0.004 min⁻¹ | K 21 [1, 3]: 0.011 ± 0.005 min⁻¹ | K a [1, 3]: 0.025 ± 0.004 min⁻¹ | T lag [1, 3]: 0 ± 0 min | V/F [1, 3]: 20.0 ± 4.7 L/kg | t 1/2Ka [1, 3]: 27.7 ± 3.7 min | t 1/2α [1, 3]: 35.0 ± 1.9 min | α [1, 3]: 0.020 ± 0.004 min⁻¹ | β [1, 3]: 0.010 ± 0.002 min⁻¹ | K 10 [1, 4]: 0.005 ± 0.001 min⁻¹ | K 12 [1, 4]: 0.022 ± 0.005** min^−1 | K 21 [1, 4]: 0.011 ± 0.003 min⁻¹ | K a [1, 4]: 0.034 ± 0.003** min^−1 | T lag [1, 4]: 0.61 ± 0.47 min | V/F [1, 4]: 31.1 ± 6.9 L/kg | t 1/2Ka [1, 4]: 20.3 ± 4.2 min | t 1/2α [1, 4]: 25.2 ± 2.4 min | α [1, 4]: 0.027 ± 0.008 min⁻¹ | β [1, 4]: 0.010 ± 0.001 min⁻¹ | Kp at 1 h ([2]; brain, peak levels at 1.0 h, read-out: level in brain, fold higher than the plasma concentrations): 1.14 | concentration at 0.5 h ([2]; brain, 3 mL·kg^−1, 0.5 h, oral Panax notoginseng with Borneol, read-out: Concentration in brain): 1800 ± 420 ng/g | concentration at 0.5 h ([2]; brain, 3 mL·kg^−1, 0.5 h, oral Panax notoginseng, read-out: Concentration in brain): 1050 ± 420 ng/g | concentration at 1 h ([2]; brain, 3 mL·kg^−1, 1.0 h, oral Panax notoginseng, read-out: Concentration in brain): 1210 ± 280 ng/g | concentration at 3 h ([2]; brain, oral Panax notoginseng with Borneol, read-out: Concentration in brain): 1650 ± 230 ng/g | concentration at 3 h ([2]; brain, oral Panax notoginseng, read-out: Concentration in brain): 630 ± 120 ng/g | concentration at 1 h ([2]; brain, 1.0 h, oral Panax notoginseng with Borneol, read-out: Concentration in brain): 2760 ± 630 ng/g | Kp at 1 h ([2]; heart, peak levels at 1.0 h, read-out: level in heart, fold higher than the plasma concentrations): 1.35 | concentration at 0.5 h ([2]; heart, 3 mL·kg^−1, 0.5 h, oral Panax notoginseng with Borneol, read-out: Concentration in heart): 2810 ± 740 ng/g | concentration at 0.5 h ([2]; heart, 3 mL·kg^−1, 0.5 h, oral Panax notoginseng, read-out: Concentration in heart): 1650 ± 530 ng/g | concentration at 1 h ([2]; heart, 3 mL·kg^−1, 1.0 h, oral Panax notoginseng, read-out: Concentration in heart): 2110 ± 280 ng/g | concentration at 3 h ([2]; heart, oral Panax notoginseng with Borneol, read-out: Concentration in heart): 2240 ± 540 ng/g | concentration at 3 h ([2]; heart, oral Panax notoginseng, read-out: Concentration in heart): 1140 ± 130 ng/g | concentration at 1 h ([2]; heart, 1.0 h, oral Panax notoginseng with Borneol, read-out: Concentration in heart): 3280 ± 430 ng/g | Kp at 1 h ([2]; kidney, at 1.0 h, read-out: level in kidney, fold higher than the plasma concentrations): 1 | concentration at 0.5 h ([2]; kidney, 3 mL·kg^−1, 0.5 h, oral Panax notoginseng with Borneol, read-out: Concentration in kidney): 2840 ± 530 ng/g | concentration at 0.5 h ([2]; kidney, 3 mL·kg^−1, 0.5 h, oral Panax notoginseng, read-out: Concentration in kidney): 1630 ± 180 ng/g | concentration at 1 h ([2]; kidney, 3 mL·kg^−1, 1.0 h, oral Panax notoginseng, read-out: Concentration in kidney): 1530 ± 220 ng/g | concentration at 3 h ([2]; kidney, oral Panax notoginseng with Borneol, read-out: Concentration in kidney): 1610 ± 450 ng/g | concentration at 3 h ([2]; kidney, oral Panax notoginseng, read-out: Concentration in kidney): 1150 ± 130 ng/g | concentration at 1 h ([2]; kidney, 1.0 h, oral Panax notoginseng with Borneol, read-out: Concentration in kidney): 2430 ± 290 ng/g | Kp at 1 h ([2]; liver, peak levels at 1.0 h, read-out: level in liver, fold higher than the plasma concentrations): 1.97 | concentration at 0.5 h ([2]; liver, 3 mL·kg^−1, 0.5 h, oral Panax notoginseng with Borneol, read-out: Concentration in liver): 3600 ± 460 ng/g | concentration at 0.5 h ([2]; liver, 3 mL·kg^−1, 0.5 h, oral Panax notoginseng, read-out: Concentration in liver): 990 ± 330 ng/g | concentration at 1 h ([2]; liver, 3 mL·kg^−1, 1.0 h, oral Panax notoginseng, read-out: Concentration in liver): 1300 ± 250 ng/g | concentration at 3 h ([2]; liver, oral Panax notoginseng with Borneol, read-out: Concentration in liver): 2630 ± 810 ng/g | concentration at 3 h ([2]; liver, oral Panax notoginseng, read-out: Concentration in liver): 690 ± 110 ng/g | concentration at 1 h ([2]; liver, 1.0 h, oral Panax notoginseng with Borneol, read-out: Concentration in liver): 4770 ± 420 ng/g | Kp at 1 h ([2]; lung, peak levels at 1.0 h, read-out: level in lung, fold higher than the plasma concentrations): 1.24 | concentration at 0.5 h ([2]; lung, 3 mL·kg^−1, 0.5 h, oral Panax notoginseng with Borneol, read-out: Concentration in lung): 2480 ± 690 ng/g | concentration at 0.5 h ([2]; lung, 3 mL·kg^−1, 0.5 h, oral Panax notoginseng, read-out: Concentration in lung): 700 ± 410 ng/g | concentration at 1 h ([2]; lung, 3 mL·kg^−1, 1.0 h, oral Panax notoginseng, read-out: Concentration in lung): 920 ± 130 ng/g | concentration at 3 h ([2]; lung, oral Panax notoginseng with Borneol, read-out: Concentration in lung): 1530 ± 450 ng/g | concentration at 3 h ([2]; lung, oral Panax notoginseng, read-out: Concentration in lung): 310 ± 440 ng/g | concentration at 1 h ([2]; lung, 1.0 h, oral Panax notoginseng with Borneol, read-out: Concentration in lung): 2990 ± 170 ng/g | concentration at 0.5 h ([2]; plasma, 3 mL·kg^−1, 0.5 h, oral Panax notoginseng, read-out: Concentration in plasma): 1780 ± 110 ng/mL | concentration at 1 h ([2]; plasma, 3 mL·kg^−1, 1.0 h, oral Panax notoginseng, read-out: Concentration in plasma): 1900 ± 150 ng/mL | concentration at 3 h ([2]; plasma, oral Panax notoginseng with Borneol, read-out: Concentration in plasma): 870 ± 40 ng/mL | concentration at 3 h ([2]; plasma, oral Panax notoginseng, read-out: Concentration in plasma): 790 ± 20 ng/mL | concentration at 0.5 h ([2]; plasma, 0.5 h, oral Panax notoginseng with Borneol, read-out: Concentration in plasma): 2680 ± 130 ng/mL | concentration at 1 h ([2]; plasma, 1.0 h, oral Panax notoginseng with Borneol, read-out: Concentration in plasma): 2420 ± 80 ng/mL
